Test results from patent US20240316047A1, “INHIBITORS OF RNA HELICASE DHX9 AND USES THEREOF” (ACCENT THERAPEUTICS, INC., priority 2022, published 2024).

Target: Human recombinant DHX9 protein (Homo sapiens (Human), UniProt Q08211)
Test: DHX9 ATPase assay (ADP-Glo)
Type: biochemical
Settings: for IC50: read-out: DHX9 Biochemical Inflection Point

Sequence of Human recombinant DHX9 protein (Q08211 whole entry): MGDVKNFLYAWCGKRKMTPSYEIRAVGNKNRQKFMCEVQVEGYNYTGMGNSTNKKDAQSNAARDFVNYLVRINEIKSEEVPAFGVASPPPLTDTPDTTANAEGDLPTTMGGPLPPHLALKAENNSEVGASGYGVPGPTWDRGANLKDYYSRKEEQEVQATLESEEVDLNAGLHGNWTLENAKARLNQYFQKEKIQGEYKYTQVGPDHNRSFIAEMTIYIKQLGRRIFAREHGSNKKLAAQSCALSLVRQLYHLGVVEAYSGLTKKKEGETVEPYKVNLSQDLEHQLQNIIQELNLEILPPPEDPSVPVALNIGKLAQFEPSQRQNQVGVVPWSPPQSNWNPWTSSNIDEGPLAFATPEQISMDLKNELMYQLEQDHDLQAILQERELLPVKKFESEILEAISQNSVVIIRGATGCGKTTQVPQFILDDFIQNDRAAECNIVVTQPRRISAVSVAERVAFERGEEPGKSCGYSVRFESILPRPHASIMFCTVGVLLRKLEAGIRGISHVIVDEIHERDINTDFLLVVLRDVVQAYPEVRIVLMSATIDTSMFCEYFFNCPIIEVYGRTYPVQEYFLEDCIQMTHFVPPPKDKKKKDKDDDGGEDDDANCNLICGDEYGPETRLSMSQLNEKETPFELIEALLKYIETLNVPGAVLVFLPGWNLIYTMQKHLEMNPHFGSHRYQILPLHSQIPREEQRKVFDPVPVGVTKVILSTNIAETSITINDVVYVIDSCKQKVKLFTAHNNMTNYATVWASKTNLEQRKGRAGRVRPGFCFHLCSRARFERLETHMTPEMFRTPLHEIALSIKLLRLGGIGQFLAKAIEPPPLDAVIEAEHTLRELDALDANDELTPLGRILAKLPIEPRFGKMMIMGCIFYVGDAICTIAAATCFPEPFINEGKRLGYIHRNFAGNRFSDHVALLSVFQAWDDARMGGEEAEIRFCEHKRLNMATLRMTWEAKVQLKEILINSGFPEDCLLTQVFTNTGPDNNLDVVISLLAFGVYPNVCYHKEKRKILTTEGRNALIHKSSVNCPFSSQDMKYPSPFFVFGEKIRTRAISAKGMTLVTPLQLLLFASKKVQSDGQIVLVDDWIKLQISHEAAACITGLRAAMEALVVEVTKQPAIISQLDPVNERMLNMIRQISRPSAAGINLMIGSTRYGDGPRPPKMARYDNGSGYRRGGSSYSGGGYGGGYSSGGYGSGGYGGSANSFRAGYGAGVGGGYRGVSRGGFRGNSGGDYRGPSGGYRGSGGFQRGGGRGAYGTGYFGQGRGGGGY

Row | SMILES | DHX9 Biochemical Max Inhibition | IC50
1 | Cc1cc(C(=O)Nc2cc(Cl)cc(NS(C)(=O)=O)c2)cn1-c1ncc(OC2COC2)cn1 [Example 669] | 80.8 | 0.0019 µM
2 | CCS(=O)(=O)Nc1cc(Cl)cc(NC(=O)c2cc(-c3ncc(N4CC(F)(F)C4)cn3)c(C)s2)c1 [Example 463] | 77.1 | 0.0085 µM
3 | Cc1sc(C(=O)Nc2cc(Cl)cc(NS(C)(=O)=O)c2)cc1-c1ncc(OC(C)(C)C(=O)O)cn1 [Example 670] | 73.4 | 0.0062 µM
4 | CS(=O)(=O)Nc1cc(Cl)cc(NC(=O)c2cnn(-c3ncccc3OCc3ccccc3F)c2)c1 [Example 189] | 72.1% | 0.0327 µM
5 | CCS(=O)(=O)Nc1cc(F)cc(NC(=O)c2cc(-c3ccccn3)cs2)c1 [Example 113] | 65.9% | 0.04 µM
6 | CCS(=O)(=O)Nc1cc(Cl)cc(NC(=O)c2cc(-c3ncc(F)cc3C)cs2)c1 [Example 226] | 73.6% | 0.0084 µM
7 | CS(=O)(=O)Nc1cc(Cl)cc(NC(=O)c2cnn(C3CCNCC3)c2)c1 [Example 145, N-(3-chloro-5-(methylsulfonamido)phenyl)-1-(piperidin-4-yl)-1H-pyrazole-4-carboxamide] | 67.9% | 0.058 µM
8 | Cn1cc(C(=O)Nc2cc(Cl)cc(NS(C)(=O)=O)c2)cc1-c1ncccc1OCc1cncc(F)c1 [Example 174, N-(3-chloro-5-(methylsulfonamido)phenyl)-5-(3-((5-fluoropyridin-3-yl)methoxy)pyridin-2-yl)-1-methyl-1H-pyrrole-3-carboxamide] | 75.8% | 0.0018 µM
9 | CS(=O)(=O)Nc1cc(Cl)cc(NC(=O)c2cc(-c3ncc(F)cn3)c(C3CC3)s2)c1 [Example 448] | 66.7 | 1.75 µM
10 | Cc1cccnc1-n1cc(C(=O)Nc2cc(Br)cc(NS(C)(=O)=O)c2)cc1C [Example 45] | 67.4% | 0.0164 µM
11 | Cn1cc(C(=O)Nc2cc(Cl)cc(NS(C)(=O)=O)c2)cc1-c1ncc(OC(C)(C)C)cn1 [Example 556] | 64.8 | 0.0206 µM
12 | CCOc1cc(F)cnc1-c1cc(C(=O)Nc2cc(Cl)cc(NS(C)(=O)=O)c2)cn1C [Example 561] | 69.7 | 0.0159 µM
13 | CC(C)Oc1ccc(-c2csc(C(=O)Nc3cc(Cl)cc(NS(C)(=O)=O)c3)c2)nc1 [Example 459] | 65.7 | 
14 | CS(=O)(=O)Nc1cc(Cl)cc(NC(=O)c2cnn(-c3ncccc3COc3cncc(F)c3)c2)c1 [Example 262] | 66.5% | 0.12 µM
15 | COc1cnc(-n2cc(C(=O)Nc3cc(Cl)cc(NS(C)(=O)=O)c3)cc2C)nc1 [Example 441] | 72.6 | 0.0265 µM
16 | CC(C)c1sc(C(=O)Nc2cc(Cl)cc(NS(C)(=O)=O)c2)cc1-c1ccccn1 [Example 233] | 80.3% | 0.0455 µM
17 | CS(=O)(=O)Nc1cc(Cl)cc(NC(=O)c2cnn(-c3ncccc3Oc3ncccn3)c2)c1 [Example 196] | 68.9% | 0.0786 µM
18 | Cn1cc(C(=O)Nc2cc(Cl)cc(NS(C)(=O)=O)c2)cc1-c1ncc(N2CCC2)cn1 [Example 521] | 71.8 | 0.0035 µM
19 | Cc1cncc2cc(C(=O)Nc3cc(Cl)cc(NS(C)(=O)=O)c3)sc12 [Example 290] | 59.7% | 5.59 µM
20 | Cc1sc(C(=O)Nc2cc(Cl)cc(NS(C)(=O)=O)c2)cc1-c1c(F)cncc1F [Example 362] | 88.6% | 0.0443 µM
21 | CC1(C)CC(n2cc(C(=O)Nc3cc(Cl)cc(NS(C)(=O)=O)c3)cn2)CCN1 (stereo not shown) [Example 315] | 66.9% | 0.0753 µM
22 | Cc1cc(C(=O)Nc2cc(Cl)cc(NS(=O)(=O)C(F)F)c2)cn1-c1ccc(N2CCOCC2)cn1 [Example 248] | 70.8% | 0.185 µM
23 | CS(=O)(=O)Nc1cc(Cl)cc(NC(=O)c2cnn(-c3ccc(N4CC5(COC5)C4)cc3OCc3cccc(F)c3)c2)c1 [Example 722] | 74.4 | 0.0191 µM
24 | CCS(=O)(=O)Nc1cc(Cl)cc(NC(=O)c2cc(C)n(-c3ncc(N4CC(F)(F)C4)cn3)c2)c1 [Example 423] | 74.2 | 0.0216 µM
25 | CS(=O)(=O)Nc1cc(Cl)cc(NC(=O)c2cc(C(F)(F)F)n(-c3ccc(N4CCOCC4)cn3)c2)c1 [Example 271] | 66.1% | 0.0865 µM
26 | CS(=O)(=O)Nc1cc(Br)cc(NC(=O)c2cnn(-c3ccc(C(F)(F)F)cn3)c2)c1 [Example 43] | 49.8% | 0.258 µM
27 | CC(=O)N1CCN(c2cc(F)cnc2-c2cc(C(=O)Nc3cc(Cl)cc(NS(C)(=O)=O)c3)sc2C)CC1 [Example 504] | 65.9 | 0.0235 µM

Row | SMILES | DHX9 Biochemical Max Inhibition | IC50
28 | Cc1sc(C(=O)Nc2cc(Cl)cc(NS(C)(=O)=O)c2)cc1-c1ncc(N2CC[Si](C)(C)CC2)cc1F [Example 473] | 54.5 | 0.313 µM
29 | CS(=O)(=O)Nc1cc(Cl)cc(NC(=O)c2cc(-c3cccc(F)c3)cs2)c1 [Example 108] | 59.8% | 0.21 µM
30 | Cc1sc(C(=O)Nc2cc(Cl)cc(NS(C)(=O)=O)c2)cc1-c1ncc(OC2CNC2)cn1 [Example 636, 4-[5-(azetidin-3-yloxy)pyrimidin-2-yl]-N-(3-chloro-5-methanesulfonamidophenyl)-5-methylthiophene-2-carboxamide] | 70.3 | 0.0122 µM
31 | Cc1sc(C(=O)Nc2cc(Cl)cc(NS(C)(=O)=O)c2)cc1N1C(=O)N(c2ccccn2)C(C)(C)C1=O [Example 685] | 64.3 | 0.117 µM
32 | CS(=O)(=O)Nc1cc(Cl)cc(NC(=O)c2cc(C(=O)N3CCCCC3)n(-c3ccccn3)c2)c1 [Example 644] | 71.2 | 0.095 µM
33 | Cc1sc(C(=O)Nc2cc(Cl)cc(NS(C)(=O)=O)c2)cc1-c1ncc(C2(O)CN(C)C2)cc1F [Example 681] | 77.5 | 0.0024 µM
34 | CS(=O)(=O)Nc1cc(Cl)cc(NC(=O)c2cnn(-c3ncccc3OCc3ccc(F)cc3)c2)c1 [Example 69] | 62.3% | 0.113 µM
35 | CS(=O)(=O)Nc1cc(Cl)cc(NC(=O)c2cnn(C3CCOCC3)c2)c1 [Example 131, N-(3-chloro-5-(methylsulfonamido)phenyl)-1-(tetrahydro-2H-pyran-4-yl)-1H-pyrazole-4-carboxamide] | 55.9% | 0.151 µM
36 | COc1ccc(-c2cc(C(=O)Nc3cc(Cl)cc(NS(C)(=O)=O)c3)sc2C)nc1 [Example 352] | 84.1% | 
37 | CN1CCN(c2ccc(-n3cc(C(=O)Nc4cc(Br)cc(NS(C)(=O)=O)c4)cn3)nc2)CC1=O [Example 88] | 54.2% | 0.0071 µM
38 | Cc1cc(C(=O)Nc2cc(Cl)cc(NS(C)(=O)=O)c2)cn1-c1ncc(F)cc1-c1cncc(F)c1 [Example 666] | 78.4 | 0.121 µM
39 | CS(=O)(=O)Nc1cc(Cl)cc(NC(=O)c2cnn(-c3ncccc3-c3cncnc3)c2)c1 [Example 387] | 58.2% | 0.186 µM
40 | COc1cnc(-c2cc(C(=O)Nc3cc(Cl)cc(NS(C)(=O)=O)c3)cn2C)c(F)c1 [Example 454] | 82.9 | 0.005 µM
41 | Cc1sc(C(=O)Nc2cc(Cl)cc(NS(C)(=O)=O)c2)cc1-c1ncc(C(F)(F)F)cc1C#N [Example 367] | 63.5% | 0.0559 µM
42 | Cc1ccc(-n2cc(C(=O)Nc3cc(Br)cc(NS(C)(=O)=O)c3)cn2)nc1 [Example 42] | 48.7% | 0.0187 µM
43 | Cc1cc(C(=O)Nc2cc(Cl)cc(NS(C)(=O)=O)c2)cn1-c1ncc(N2CCC2)cn1 [Example 398] | 65.9 | 0.0088 µM
44 | Cc1cc(C(=O)Nc2cc(Cl)cc(NS(C)(=O)=O)c2)cn1-c1ncccc1O [Example 281] | 75.7% | 0.028 µM
45 | CS(=O)(=O)Nc1cc(Cl)cc(NC(=O)c2cc(-c3ncccc3C(F)(F)F)cs2)c1 [Example 223] | 75.7% | 0.0565 µM
46 | CCS(=O)(=O)Nc1cc(Cl)cc(NC(=O)c2cc(-c3ncc(F)cc3F)c(C)s2)c1 [Example 347] | 72.1% | 0.034 µM
47 | COc1cc(N2CC(F)(F)C2)cnc1-c1cc(C(=O)Nc2cc(Cl)cc(NS(C)(=O)=O)c2)cn1C [Example 462] | 82.4 | 0.0091 µM
48 | CS(=O)(=O)Nc1cc(Cl)cc(NC(=O)c2cnn(-c3ccc(N4CC5CCC(C4)O5)cn3)c2)c1 [Example 191] | 67.6% | 0.0042 µM
49 | CS(=O)(=O)Nc1cc(Cl)cc(NC(=O)c2cc(C(F)(F)F)n(-c3ccc(F)cn3)c2)c1 [Example 267] | 66.4% | 0.248 µM
50 | Cc1cc(C(=O)Nc2cc(Cl)cc(NS(C)(=O)=O)c2)cn1-c1ncc(N2CCOCC2)cc1F [Example 412] | 72.2 | 0.0105 µM
51 | CS(=O)(=O)Nc1cc(Br)cc(NC(=O)c2cnn(-c3cc(C#N)ccc3OCc3ccccc3)c2)c1 [Example 67] | 54% | 0.154 µM
52 | CCS(=O)(=O)Nc1cc(Cl)cc(NC(=O)c2cc(-c3ncc(C(F)(F)F)cc3C)c(C)s2)c1 [Example 700] | 85.6 | 0.153 µM
53 | CS(=O)(=O)Nc1cc(Br)cc(NC(=O)c2ccc3c(c2)[nH]c(=O)n3Cc2ccccc2)c1 [Example 99, 1-benzyl-N-(3-bromo-5-(methylsulfonamido)phenyl)-2-oxo-2,3-dihydro-1H-benzo[d]imidazole-5-carboxamide] | 50.9% | 0.298 µM
54 | Cc1cc(C(=O)Nc2cc(Cl)cc(NS(C)(=O)=O)c2)cn1-c1ccc(N2CC3CC3C2)cn1 (stereo not shown) [Example 411] | 74.2 | 0.0416 µM
